The values that follow come from patent US20050221406A1, “Method, composition and device for treating starch related diseases” (priority 2004, published 2005).

For series [1] the following is noted: venous blood; typical time course; cited from earlier work.
The conditions of series [2]: four 1-minute maximal sprints at 125%, fifth interval to exhaustion; ingestion prior to exercise; cited from earlier work.
For series [3] the following is noted: trial (i): 300 mg sodium bicarbonate per kg of body mass, 100 min before exercise; fourteen healthy male volunteers; differs from placebo and no ingestion (P<0.05).
Experimental: A double-blind protocol was used between the (i) and (ii) trials. […] Each condition was repeated so that the volunteers underwent treadmill exercise for six times. 100 minutes before commencing treadmill exercise was allowed after ingesting substances in (i), (ii) and (iii). The volunteers exercised until fatigue. Fourteen of the volunteers completed all the tests.
A double-blind protocol was used between the (i) and (ii) trials. […] Each condition was repeated so that the volunteers underwent treadmill exercise for six times. 100 min before commencing treadmill exercise was allowed after ingesting substances in (i), (ii) and (iii). The volunteers exercised until fatigue.
Results: Fourteen of the volunteers completed all the tests. […] The data were analyzed using a two-way ANOVA with replicates and Tukey tests.
The conditions of series [4]: Wilkes and co-workers, cited from earlier work.
For series [5] the following is noted: 100, 150, and 200 mg NaHCO3/kg body weight; 2-minute maximal exercise bout; cited from earlier work.
For series [6] the following is noted: running at intensity corresponding to blood lactate of 4 mM, sustained approximately 30 minutes; cited from earlier work.
Series [7] can be described thus: Blood glucose readings, Type I diabetic patient (Tables 1 and 2). The series is classed as in vivo, human. As to conditions: Table 1, one week before starting treatment, insulin 30 iu twice a day, daily readings Mon-Sun.
Text: The patient started using the first method of treatment (day and night), then changed to the 3rd method after 2 weeks of treatment, carried n with it continuously.
The patient was on 30 iu of insulin twice a day (60 iu/day) regardless of any reading of their glucose levels. […] After 4 weeks of continuous treatment with P.I.R.T (treatment method number three), their insulin does was reduced to 10 iu in the morning and 20 iu in the evening (30 iu per day).

Where “and” joins values, the source holds several entries; their conditions need not be identical. Equal values may be shown once.

Take `O=C([O-])O.[Na+]` [sodium bicarbonate]: in series [1], the “time of maximal rise in pH bicarbonate ion concentration after ingestion” value is “about 1.5 hours” and the “time pH bicarbonate ion concentration remains elevated after ingestion” value is on record as “at least 2 hours”. The “increase of exercise duration of the final bout” value in series [2] is on record as 42%. Also, in series [3], the “average time, treadmill exercise until fatigue” value came out at 4.01 s. Besides, the “decrease in 800 m running time” value in series [4] was roughly 3 s. Further, the “distance equivalent of the decrease in 800 m running time” value in series [4] (estimated) is recorded as “approximately 19 m”. For the same compound, the “effect on power output” value in series [5] is listed as “no significant increase”. Further, the “effect on time to exhaustion” value in series [6] is reported as “no effect”.
As for insulin, in series [7], the Pre tea BG was 23.1 mM and 26.2 mM and 18.4 mM and 22.2 mM and 19.5 mM and 19.9 mM and 17.4 mM.
